Results reported in patent US11968999B2, “Use and composition of buffer formulation with multiple pH values and protein digestion enhancer” (ECO-GEO BIO-TECHNOLOGY COMPANY LIMITED, priority 2018, dated 2024).

Tests used:
pepsin = pepsin (Homo sapiens, UniProt P0DJD8); test: Proteolysis of casein by pepsin with ascorbic acid in citric acid buffer (OPA fluorescence, TAAE); type: biochemical
Description: 1. […]
(§1) The four test tubes were respectively incubated at 37° C. for 10 minutes, 1 hour, 2 hours and 3 hours, an equal amount of 10% trichloroacetic acid (TCA) solution was added into each test tube and mixed with the control solution uniformly, and the test tubes were held at room temperature for 10 minutes and then centrifuged at 3000 rpm for 10 minutes. 20 μL of the supernatants taken from the above-mentioned test tubes at four time points were put into four new test tubes. 2.4 mL o-phthalaldehyde (OPA) reagent was added into each new test tube and held for 2 minutes, and the fluorescence intensity was measured at EX. 340 nm and EM. 455 nm by a fluorescence spectrometer. […] The four test tubes were respectively incubated at 37° C. for 10 minutes, 1 hour, 2 hours and 3 hours, an equal amount of 10% TCA solution was added into each test tube and mixed with the experimental solution uniformly, and the test tubes were held at room temperature for 10 minutes and then centrifuged at 3000 rpm for 10 minutes. 20 μL of the supernatants taken from the above-mentioned test tubes at four time points were put into four new test tubes. 2.4 mL OPA reagent was added into each new test tube and held for 2 minutes, and the fluorescence intensity was measured at EX. 340 nm and EM. 455 nm by the fluorescence spectrometer. […] The four test tubes were respectively incubated at 37° C. for 10 minutes, 1 hour, 2 hours and 3 hours, an equal amount of 10% TCA solution was added into each test tube and mixed with the experimental solution uniformly, and the test tubes were held at room temperature for 10 minutes and then centrifuged at 3000 rpm for 10 minutes. 20 μL of the supernatants taken from the above-mentioned test tubes at four time points were put into four new test tubes. 2.4 mL OPA reagent was added into each new test tube and held for 2 minutes, and the fluorescence intensity was measured at EX. 340 nm and EM. 455 nm by the fluorescence spectrometer. […] The four test tubes were respectively incubated at 37° C. for 10 minutes, 1 hour, 2 hours and 3 hours, an equal amount of 10% TCA solution was added into each test tube and mixed with the experimental solution uniformly, and the test tubes were held at room temperature for 10 minutes and then centrifuged at 3000 rpm for 10 minutes. 20 μL of the supernatants taken from the above-mentioned test tubes at four time points were put into four new test tubes. 2.4 mL OPA reagent was added into each new test tube and held for 2 minutes, and the fluorescence intensity was measured at EX. 340 nm and EM. 455 nm by the fluorescence spectrometer. The obtained fluorescence intensity was calculated as the amount of tyrosine according to the tyrosine calibration line established in advance at the same pH value, and represented as TAAE (μg/mL). 2. […] The four test tubes were respectively incubated at 37° C. for 10 minutes, 1 hour, 2 hours and 3 hours, an equal amount of 10% TCA solution was added into each test tube and mixed with the control solution uniformly, and the test tubes were held at room temperature for 10 minutes and then centrifuged at 3000 rpm for 10 minutes. 20 μL of the supernatants taken from the above-mentioned test tubes at four time points were put into four new test tubes. 2.4 mL OPA reagent was added into each new test tube and held for 2 minutes, and the fluorescence intensity was measured at EX. 340 nm and EM. 455 nm by the fluorescence spectrometer. […] The four test tubes were respectively incubated at 37° C. for 10 minutes, 1 hour, 2 hours and 3 hours, an equal amount of 10% TCA solution was added into each test tube and mixed with the experimental solution uniformly, and the test tubes were held at room temperature for 10 minutes and then centrifuged at 3000 rpm for 10 minutes. 20 μL of the supernatants taken from the above-mentioned test tubes at four time points were put into four new test tubes. […]

[1] = environment where the pH is greater than 4; cited from earlier work
trypsin = trypsin (Homo sapiens, UniProt P07477); test: Proteolysis of casein by trypsin with ascorbic acid in citric acid buffer (OPA fluorescence, TAAE); type: biochemical
Description: as §1

[2] = pH 5.0, 60 ppm ascorbic acid, 0.1 hr
[3] = pH 5.0, 60 ppm ascorbic acid, 1 hr
[4] = pH 5.0, 60 ppm ascorbic acid, 2 hr
[5] = pH 5.0, 60 ppm ascorbic acid, 3 hr
[6] = pH 5.0, 120 ppm ascorbic acid, 0.1 hr
[7] = pH 5.0, 120 ppm ascorbic acid, 1 hr
[8] = pH 5.0, 120 ppm ascorbic acid, 2 hr
[9] = pH 5.0, 120 ppm ascorbic acid, 3 hr
[10] = pH 5.0, 240 ppm ascorbic acid, 0.1 hr
[11] = pH 5.0, 240 ppm ascorbic acid, 1 hr
[12] = pH 5.0, 240 ppm ascorbic acid, 2 hr
[13] = pH 5.0, 240 ppm ascorbic acid, 3 hr
[14] = pH 6.0, 60 ppm ascorbic acid, 0.1 hr
[15] = pH 6.0, 60 ppm ascorbic acid, 1 hr
[16] = pH 6.0, 60 ppm ascorbic acid, 2 hr
[17] = pH 6.0, 60 ppm ascorbic acid, 3 hr
[18] = pH 6.0, 120 ppm ascorbic acid, 0.1 hr
[19] = pH 6.0, 120 ppm ascorbic acid, 1 hr
[20] = pH 6.0, 120 ppm ascorbic acid, 2 hr
[21] = pH 6.0, 120 ppm ascorbic acid, 3 hr
[22] = pH 6.0, 240 ppm ascorbic acid, 0.1 hr
[23] = pH 6.0, 240 ppm ascorbic acid, 1 hr
[24] = pH 6.0, 240 ppm ascorbic acid, 2 hr
[25] = pH 6.0, 240 ppm ascorbic acid, 3 hr
[26] = pH 6.0, groups containing ascorbic acid

Chain of pepsin (P0DJD8 63-388): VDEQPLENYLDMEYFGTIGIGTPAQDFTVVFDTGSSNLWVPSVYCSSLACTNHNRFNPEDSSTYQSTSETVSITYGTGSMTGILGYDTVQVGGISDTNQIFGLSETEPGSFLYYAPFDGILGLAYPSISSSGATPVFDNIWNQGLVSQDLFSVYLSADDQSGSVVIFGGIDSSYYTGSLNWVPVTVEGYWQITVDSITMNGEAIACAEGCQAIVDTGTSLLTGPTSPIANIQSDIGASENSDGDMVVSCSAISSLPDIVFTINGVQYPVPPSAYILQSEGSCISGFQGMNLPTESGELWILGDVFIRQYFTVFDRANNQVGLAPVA

O=C1O[C@H]([C@@H](O)CO)C(O)=C1O [ascorbic acid]
total amino acid equivalent (TAAE) (pepsin; pH 2.0, 60 ppm ascorbic acid, 0.1 hr): 3.8 µg/mL
total amino acid equivalent (TAAE) (pepsin; pH 2.0, 60 ppm ascorbic acid, 1 hr): 44.9 µg/mL
total amino acid equivalent (TAAE) (pepsin; pH 2.0, 60 ppm ascorbic acid, 2 hr): 70.9 µg/mL
total amino acid equivalent (TAAE) (pepsin; pH 2.0, 60 ppm ascorbic acid, 3 hr): 44.9 µg/mL
total amino acid equivalent (TAAE) (pepsin; pH 2.0, 120 ppm ascorbic acid, 0.1 hr): 6.7 µg/mL
total amino acid equivalent (TAAE) (pepsin; pH 2.0, 120 ppm ascorbic acid, 1 hr): 45.1 µg/mL
total amino acid equivalent (TAAE) (pepsin; pH 2.0, 120 ppm ascorbic acid, 2 hr): 73.0 µg/mL
total amino acid equivalent (TAAE) (pepsin; pH 2.0, 120 ppm ascorbic acid, 3 hr): 58.7 µg/mL
total amino acid equivalent (TAAE) (pepsin; pH 2.0, 240 ppm ascorbic acid, 0.1 hr): 5.6 µg/mL
total amino acid equivalent (TAAE) (pepsin; pH 2.0, 240 ppm ascorbic acid, 1 hr): 54.6 µg/mL
total amino acid equivalent (TAAE) (pepsin; pH 2.0, 240 ppm ascorbic acid, 2 hr): 76.4 µg/mL
total amino acid equivalent (TAAE) (pepsin; pH 2.0, 240 ppm ascorbic acid, 3 hr): 38.2 µg/mL
hydrolysis efficiency of pepsin versus control group (in words) (pepsin; pH 2.0, groups containing ascorbic acid): better hydrolysis efficiencies than the control group
TAAE (pepsin; [2]): 6.4 µg/mL
TAAE (pepsin; [3]): 32.7 µg/mL
TAAE (pepsin; [4]): 58.6 µg/mL
TAAE (pepsin; [5]): 42.0 µg/mL
TAAE (pepsin; [6]): 19.5 µg/mL
TAAE (pepsin; [7]): 22.1 µg/mL
TAAE (pepsin; [8]): 55.4 µg/mL
TAAE (pepsin; [9]): 38.1 µg/mL
proteolytic efficiency of pepsin (in words) (pepsin; pH 5.0, 240 ppm ascorbic acid): improves the proteolytic efficiency of the pepsin significantly
TAAE (pepsin; [10]): 49.5 µg/mL
TAAE (pepsin; [11]): 81.1 µg/mL
TAAE (pepsin; [12]): 92.2 µg/mL
TAAE (pepsin; [13]): 72.6 µg/mL
effect on proteolysis efficiency of pepsin (in words) (pepsin; pH 5, pH 6 and pH 2, control group at pH 2 as comparison indicator): significant effect on the proteolysis efficiency of the pepsin
TAAE (pepsin; [14]): 4.2 µg/mL
TAAE (pepsin; [15]): 47.9 µg/mL
TAAE (pepsin; [16]): 40.4 µg/mL
TAAE (pepsin; [17]): 27.5 µg/mL
TAAE (pepsin; [18]): -6.7 µg/mL
TAAE (pepsin; [19]): 43.9 µg/mL
TAAE (pepsin; [20]): 24.4 µg/mL
TAAE (pepsin; [21]): 24.2 µg/mL
TAAE (pepsin; [22]): 1.8 µg/mL
TAAE (pepsin; [23]): 31.5 µg/mL
TAAE (pepsin; [24]): 57.4 µg/mL
TAAE (pepsin; [25]): 34.5 µg/mL
proteolytic efficiency of pepsin versus control group (in words) (pepsin; [26]): better proteolytic efficiencies than the control group
stability (degradation) of ascorbic acid (in words) [1]: easily degraded
TAAE (trypsin; [2]): 11.5 µg/mL
TAAE (trypsin; [3]): 30.4 µg/mL
TAAE (trypsin; [4]): 37.8 µg/mL
TAAE (trypsin; [5]): 45.2 µg/mL
TAAE (trypsin; [6]): 15.3 µg/mL
TAAE (trypsin; [7]): 38.0 µg/mL
TAAE (trypsin; [8]): 39.0 µg/mL
TAAE (trypsin; [9]): 49.1 µg/mL
proteolytic efficiency of trypsin (in words) (trypsin; pH 5.0, 240 ppm ascorbic acid): improves the proteolytic efficiency of the trypsin significantly
TAAE (trypsin; [10]): 38.9 µg/mL
TAAE (trypsin; [11]): 37.5 µg/mL
TAAE (trypsin; [12]): 87.9 µg/mL
TAAE (trypsin; [13]): 89.3 µg/mL
effect on proteolysis efficiency of trypsin (in words) (trypsin; pH 5, pH 6 and pH 7.5, control group at pH 7.5 as comparison indicator): significant effect on the proteolysis efficiency of the trypsin
TAAE (trypsin; [14]): 57.7 µg/mL
TAAE (trypsin; [15]): 86.6 µg/mL
TAAE (trypsin; [16]): 90.4 µg/mL
TAAE (trypsin; [17]): 93.7 µg/mL
TAAE (trypsin; [18]): 54.2 µg/mL
TAAE (trypsin; [19]): 85.6 µg/mL
TAAE (trypsin; [20]): 91.3 µg/mL
TAAE (trypsin; [21]): 94.8 µg/mL
TAAE (trypsin; [22]): 57.9 µg/mL
TAAE (trypsin; [23]): 102.4 µg/mL
TAAE (trypsin; [24]): 103.1 µg/mL
TAAE (trypsin; [25]): 91.5 µg/mL
proteolytic efficiency of trypsin versus control group (in words) (trypsin; [26]): better proteolytic efficiencies than the control group
TAAE (trypsin; pH 7.5, 60 ppm ascorbic acid, 0.1 hr): 82.6 µg/mL
TAAE (trypsin; pH 7.5, 60 ppm ascorbic acid, 1 hr): 107.0 µg/mL
TAAE (trypsin; pH 7.5, 60 ppm ascorbic acid, 2 hr): 103.8 µg/mL
TAAE (trypsin; pH 7.5, 60 ppm ascorbic acid, 3 hr): 105.1 µg/mL
TAAE (trypsin; pH 7.5, 120 ppm ascorbic acid, 0.1 hr): 78.4 µg/mL
TAAE (trypsin; pH 7.5, 120 ppm ascorbic acid, 1 hr): 116.3 µg/mL
TAAE (trypsin; pH 7.5, 120 ppm ascorbic acid, 2 hr): 107.3 µg/mL
TAAE (trypsin; pH 7.5, 120 ppm ascorbic acid, 3 hr): 99.0 µg/mL
TAAE (trypsin; pH 7.5, 240 ppm ascorbic acid, 0.1 hr): 60.4 µg/mL
TAAE (trypsin; pH 7.5, 240 ppm ascorbic acid, 1 hr): 91.1 µg/mL
TAAE (trypsin; pH 7.5, 240 ppm ascorbic acid, 2 hr): 100.5 µg/mL
TAAE (trypsin; pH 7.5, 240 ppm ascorbic acid, 3 hr): 86.8 µg/mL
hydrolysis efficiency of trypsin versus control group (in words) (trypsin; pH 7.5, groups containing ascorbic acid): better hydrolysis efficiencies than the control group
